# Assay results taken from PubChem BioAssay AID192 (DTP/NCI, 2004).
# Several values for one entry are separate records, joined by “and”; a condition that tells them apart may be missing. Equal values may be shown once. Inconclusive results and toxic doses are left out.
# Test system: BDF1 mice, B16 melanoma ip, median survival T/C
# Experiment: NCI In Vivo Anticancer Drug Screen. Data for tumor model B16 Melanoma (intraperitoneal) in B6D2F1 (BDF1) mice
# Settings: endpoint: median survival time, higher = longer survival
# In short: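 Read-out: survival or tumor size, given as treated/control ratio. Controls received vehicle only; animals bore transplantable tumors.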
# [1] = dose: 25.0 mg/kg/injection, schedule: Q01DX009 (ip), vehicle: saline
# [2] = dose: 50.0 mg/kg/injection, schedule: Q01DX009 (ip), vehicle: saline
# [3] = dose: 100.0 mg/kg/injection, schedule: Q01DX009 (ip), vehicle: saline
# [4] = dose: 200.0 mg/kg/injection, schedule: Q01DX009 (ip), vehicle: saline
# [5] = dose: 400.0 mg/kg/injection, schedule: Q01DX009 (ip), vehicle: saline
# [6] = dose: 50.0 mg/kg/injection, schedule: Q01DX009 (ip), vehicle: saline with Tween-80
# [7] = dose: 100.0 mg/kg/injection, schedule: Q01DX009 (ip), vehicle: saline with Tween-80
# [8] = dose: 6.25 mg/kg/injection, schedule: Q01DX009 (ip), vehicle: Klucel (hydroxypropylcellulose) (HPC)
# [9] = dose: 12.5 mg/kg/injection, schedule: Q01DX009 (ip), vehicle: Klucel (hydroxypropylcellulose) (HPC)
# [10] = dose: 50.0 mg/kg/injection, schedule: Q01DX009 (ip), vehicle: Klucel (hydroxypropylcellulose) (HPC)
# [11] = dose: 100.0 mg/kg/injection, schedule: Q01DX009 (ip), vehicle: Klucel (hydroxypropylcellulose) (HPC)
# [12] = dose: 6.25 mg/kg/injection, schedule: Q01DX009 (ip), vehicle: saline
# [13] = dose: 12.5 mg/kg/injection, schedule: Q01DX009 (ip), vehicle: saline
# [14] = dose: 200.0 mg/kg/injection, schedule: Q01DX009 (ip), vehicle: saline with Tween-80
# [15] = dose: 400.0 mg/kg/injection, schedule: Q01DX009 (ip), vehicle: saline with Tween-80
# [16] = dose: 25.0 mg/kg/injection, schedule: Q01DX009 (ip), vehicle: Klucel (hydroxypropylcellulose) (HPC)
# [17] = dose: 200.0 mg/kg/injection, schedule: Q01DX009 (ip), vehicle: Klucel (hydroxypropylcellulose) (HPC)
# [18] = dose: 400.0 mg/kg/injection, schedule: Q01DX009 (ip), vehicle: Klucel (hydroxypropylcellulose) (HPC)
smiles,measurement,setting,value
CNCC(O)c1ccc(O)cc1 (configuration not stated),T/C,[1],110 % of control
same,T/C,[2],115 % of control and 121 % of control
same,T/C,[3],110 % of control and 121 % of control
same,T/C,"dose: 150.0 mg/kg/injection, schedule: Q01DX009 (ip), vehicle: saline",91 % of control
same,T/C,[4],106 % of control and 123 % of control
same,T/C,"dose: 300.0 mg/kg/injection, schedule: Q01DX009 (ip), vehicle: saline",94 % of control
same,T/C,[5],110 % of control
same,T/C,"dose: 600.0 mg/kg/injection, schedule: Q01DX009 (ip), vehicle: saline",89 % of control
Cc1ccc(S(=O)(=O)N2CCCC(Br)(Br)C(=O)c3ccccc32)cc1,T/C,"dose: 25.0 mg/kg/injection, schedule: Q04DX003 (ip), vehicle: Klucel (hydroxypropylcellulose) (HPC)",95 % of control
same,T/C,"dose: 50.0 mg/kg/injection, schedule: Q04DX003 (ip), vehicle: Klucel (hydroxypropylcellulose) (HPC)",96 % of control
same,T/C,"dose: 100.0 mg/kg/injection, schedule: Q04DX003 (ip), vehicle: Klucel (hydroxypropylcellulose) (HPC)",93 % of control
Cc1nc(-c2ccccc2)nc2c1CCO2,T/C,"dose: 33.0 mg/kg/injection, schedule: Q01DX009 (ip), vehicle: saline with Tween-80",92 % of control
same,T/C,[6],93 % of control
same,T/C,"dose: 75.0 mg/kg/injection, schedule: Q01DX009 (ip), vehicle: saline with Tween-80",89 % of control
same,T/C,[7],122 % of control
CC(C)=CCC/C(C)=C/CNCCc1c[nH]c2ccccc12,T/C,[8],107 % of control
same,T/C,[9],111 % of control
CCCC1OC(=O)C(C)O1 (configuration not stated),T/C,[10],92 % of control
same,T/C,[11],89 % of control
C(=N/NC1=NCCN1)/c1c2ccccc2c(/C=N\NC2=NCCN2)c2ccccc12,T/C,"dose: 0.78 mg/kg/injection, schedule: Q01DX009 (ip), vehicle: saline",156 % of control
same,T/C,"dose: 1.56 mg/kg/injection, schedule: Q01DX009 (ip), vehicle: saline",181 % of control
same,T/C,"dose: 3.12 mg/kg/injection, schedule: Q01DX009 (ip), vehicle: saline",205 % of control
same,T/C,[12],225 % of control
same,T/C,[13],294 % of control
Cc1[nH]c(N)nc(=S)c1CCC(=O)Nc1ccc(C(=O)NC(CCC(=O)O)C(=O)O)cc1 (configuration not stated),T/C,[6],101 % of control
same,T/C,[7],101 % of control
same,T/C,[14],100 % of control
same,T/C,[15],110 % of control
O=[N+]([O-])c1ccc(S(=O)(=O)N/N=C\c2ccc(Cl)c(Cl)c2)cc1,T/C,"dose: 12.5 mg/kg/injection, schedule: Q01DX009 (ip), vehicle: saline with Tween-80",109 % of control
same,T/C,"dose: 25.0 mg/kg/injection, schedule: Q01DX009 (ip), vehicle: saline with Tween-80",114 % of control
same,T/C,[6],112 % of control
O=c1c2cccc3cccc(c32)c2nc3ccccc3n12,T/C,"dose: 2.5 mg/kg/injection, schedule: Q01DX009 (ip), vehicle: saline with Tween-80",102 % of control
same,T/C,"dose: 5.0 mg/kg/injection, schedule: Q01DX009 (ip), vehicle: saline with Tween-80",114 % of control
NC(=O)NOCC1NC(=O)C(CONC(N)=O)NC1=O (configuration not stated),T/C,[3],98 % of control
same,T/C,[4],94 % of control
same,T/C,"dose: 200.0 mg/kg/injection, schedule: Q04DX003 (ip), vehicle: saline",102 % of control
same,T/C,[5],97 % of control
same,T/C,"dose: 400.0 mg/kg/injection, schedule: Q04DX003 (ip), vehicle: saline",94 % of control
COc1ccccc1OCC(O)COC(N)=O (configuration not stated),T/C,[16],94 % of control
same,T/C,[10],91 % of control
same,T/C,[11],105 % of control
same,T/C,[17],100 % of control
same,T/C,[18],105 % of control
CCc1cc(C)cc(OC(=O)Nc2ccc(Cl)cc2)c1,T/C,[7],116 % of control
same,T/C,[14],87 % of control
same,T/C,[15],92 % of control
CCCC(OC(C)=O)C(Cl)(Cl)Cl (configuration not stated),T/C,[16],90 % of control
same,T/C,[10],100 % of control
CCCCC[C@H](O)/C=C/[C@H]1[C@H](O)CC(=O)[C@@H]1C/C=C\CCCC(=O)O,T/C,"dose: 0.75 mg/kg/injection, schedule: Q04DX002 (ip), vehicle: Klucel (hydroxypropylcellulose) (HPC)",108 % of control
same,T/C,"dose: 1.5 mg/kg/injection, schedule: Q04DX002 (ip), vehicle: Klucel (hydroxypropylcellulose) (HPC)",97 % of control
same,T/C,"dose: 3.0 mg/kg/injection, schedule: Q04DX002 (ip), vehicle: Klucel (hydroxypropylcellulose) (HPC)",96 % of control
same,T/C,"dose: 6.0 mg/kg/injection, schedule: Q04DX002 (ip), vehicle: Klucel (hydroxypropylcellulose) (HPC)",92 % of control
same,T/C,"dose: 12.5 mg/kg/injection, schedule: Q04DX002 (ip), vehicle: other",96 % of control
same,T/C,"dose: 24.0 mg/kg/injection, schedule: Q04DX002 (ip), vehicle: Klucel (hydroxypropylcellulose) (HPC)",103 % of control
same,T/C,"dose: 25.0 mg/kg/injection, schedule: Q04DX002 (ip), vehicle: other",91 % of control
same,T/C,"dose: 100.0 mg/kg/injection, schedule: Q04DX002 (ip), vehicle: other",96 % of control
same,T/C,"dose: 200.0 mg/kg/injection, schedule: Q04DX002 (ip), vehicle: other",96 % of control
CCN(CC)CCOC(=O)N(c1ccccc1)c1ccccc1,T/C,[12],104 % of control
same,T/C,[13],100 % of control
same,T/C,[1],104 % of control
same,T/C,[2],95 % of control
same,T/C,[3],86 % of control
CCN(Cc1ccc(Cl)c(Cl)c1)c1ccc2nc(N)nc(N)c2c1C,T/C,"dose: 3.12 mg/kg/injection, schedule: Q01DX009 (ip), vehicle: distilled water + Tween-80",110 % of control
same,T/C,"dose: 3.13 mg/kg/injection, schedule: Q01DX009 (ip), vehicle: Klucel (hydroxypropylcellulose) (HPC)",89 % of control
same,T/C,[8],94 % of control
same,T/C,"dose: 6.25 mg/kg/injection, schedule: Q01DX009 (ip), vehicle: distilled water + Tween-80",115 % of control
same,T/C,"dose: 12.5 mg/kg/injection, schedule: Q01DX009 (ip), vehicle: distilled water + Tween-80",122 % of control
CC(CN(C)C)C(=O)c1ccccc1 (configuration not stated),T/C,[16],106 % of control
same,T/C,[10],90 % of control
same,T/C,[11],96 % of control
O=NN(CCF)C(=O)NC1CCC(=O)NC1=O (configuration not stated),T/C,"dose: 1.88 mg/kg/injection, schedule: Q01DX001 (ip), vehicle: saline",105 % of control
same,T/C,"dose: 7.5 mg/kg/injection, schedule: Q01DX001 (ip), vehicle: saline",120 % of control
same,T/C,"dose: 15.0 mg/kg/injection, schedule: Q01DX001 (ip), vehicle: saline",166 % of control
same,T/C,"dose: 30.0 mg/kg/injection, schedule: Q01DX001 (ip), vehicle: saline",189 % of control
same,T/C,"dose: 60.0 mg/kg/injection, schedule: Q01DX001 (ip), vehicle: saline",209 % of control
FC(F)(F)S.[Hg],T/C,"dose: 1.25 mg/kg/injection, schedule: Q01DX009 (ip), vehicle: saline",104 % of control
same,T/C,"dose: 2.5 mg/kg/injection, schedule: Q01DX009 (ip), vehicle: saline",100 % of control
same,T/C,"dose: 5.0 mg/kg/injection, schedule: Q01DX009 (ip), vehicle: saline",102 % of control
[Cl][Pt+2][Cl].[NH-]CC1(C[NH-])CCC1,T/C,"dose: 1.2 mg/kg/injection, schedule: Q01DX009 (ip), vehicle: carboxymethylcellulose (CMC)",159 % of control
same,T/C,"dose: 2.4 mg/kg/injection, schedule: Q01DX009 (ip), vehicle: carboxymethylcellulose (CMC)",168 % of control
same,T/C,"dose: 3.6 mg/kg/injection, schedule: Q01DX009 (ip), vehicle: carboxymethylcellulose (CMC)",169 % of control
COc1cc2c(cc1O)N=C[C@@H]1CCC(O)N1C2=O (mixture of isomers),T/C,"dose: 0.5 mg/kg/injection, schedule: Q01DX009 (ip), vehicle: saline",99 % of control
same,T/C,"dose: 1.0 mg/kg/injection, schedule: Q01DX009 (ip), vehicle: saline",99 % of control
same,T/C,"dose: 2.0 mg/kg/injection, schedule: Q01DX009 (ip), vehicle: saline",98 % of control
same,T/C,"dose: 4.0 mg/kg/injection, schedule: Q01DX009 (ip), vehicle: saline",101 % of control and 119 % of control
CC(=O)O[C@]1(C(C)=O)CC[C@H]2[C@@H]3C[C@H](C)C4=CC(=O)CC[C@]4(C)[C@H]3CC[C@@]21C,T/C,[9],120 % of control
same,T/C,[16],117 % of control
same,T/C,[10],100 % of control
same,T/C,[11],96 % of control
same,T/C,[17],89 % of control
same,T/C,[18],96 % of control
same,T/C,"dose: 800.0 mg/kg/injection, schedule: Q01DX009 (ip), vehicle: Klucel (hydroxypropylcellulose) (HPC)",89 % of control
